The text below walks through data of publication PMC6706930, “A novel oral micellar fenretinide formulation with enhanced bioavailability and antitumour activity against multiple tumours from cancer stem cells” (Journal of Experimental & Clinical Cancer Research : CR, 2019).

Data set [1] in a line: Tumour pharmacokinetics: fenretinide and metabolite levels in plasma and tumours of xenografted mice. It is filed as in vivo. The note with it: for concentration at 3 h: female, mouse, oral. As for the experimental part:
The determination of fenretinide in plasma of mice and the others biological samples was determined according to a method specifically developed and validated for the quantification of fenretinide (4-HPR) based on liquid chromatography-tandem mass spectrometry (LC–MS/MS) (manuscript in preparation). The procedure of sample preparation and quantification can be summarized as follows. 30 μL aliquot of plasma was added with 3 ng of deuterated internal standard (^2H4 4-HPR), deproteinized by mean of 90 μL of acetonitrile and centrifuged 5 min at 13200 rpm at room temperature. The supernatant was recovered and 5 μL injected into a HPLC system (Series 200, Perkin Elmer, MA, USA). Chromatographic separation was achieved on a Gemini-C18 column (50 mm × 2.0 mm, 5 μm particle size; Phenomenex Inc., Torrance, CA, USA) at 32 °C protected with a Security Guard™ ULTRA cartridges C18. The detection obtained by Mass spectrometric detection was carried out on a triple quadrupole API 4000 mass spectrometer (Sciex, MA, USA) equipped with atmospheric pressure chemical ionization source (APCI) operating in positive ion mode monitoring the transitions 392.3 > 283.2 m/z for 4-HPR and 396.3 > 283.2 m/z for the deuterated internal standard. To assay study samples, a calibration curve of six points (range: 1.0–500.00 ng/mL) was prepared in control mouse plasma assessing the precision and the accuracy of the run analyzing at the same time a set of freshly prepared quality controls samples. The Limit Of Quantification of the method was 1 ng/mL in plasma and urine and 50 ng/g in faeces.
Cell suspensions of lung and colon cancer and melanoma CSC lines were mixed 1:1 with Growth Factor-Reduced Matrigel (Beckton Dickinsons) and injected subcutaneously in both flanks of 5-week-old female NOD-SCID (non-obese diabetic/severe combined immunodeficiency) mice in the case of colon and melanoma or NSG (non-obese diabetic/severe combined immunodeficiency gamma chain deficient) mice in the case of lung (Charles River, Wilmington, MA, USA). For drug treatment, when tumours reached a mean diameter of 0.5 cm, groups of 6 mice were randomized into 3 groups and treated with vehicle, with Bio-nFeR (50,100 or 150 mg/kg as described) freshly dissolved in sterile water or with the standard formulation NCI-FeR that reproduce NCI capsule (50 or 100 mg/Kg). Treatments were administered by oral gavage 5 days on and 2 days off for 3 weeks. Tumours were measured twice a week using a caliper, and mice were monitored for signs of drug-induced toxicity and weighed regularly. At the end of treatments, in a study paralleling the assessment of antitumour activity, tumours and blood samples were collected for pharmacokinetic and molecular studies 3 hours after the last drug administration. Collection of blood, plasma separation and storing were as previously described. Immediately after blood collection mice were sacrificed by cervical dislocation, tumours removed rapidly frozen in liquid nitrogen and stored in small pieces at − 80 °C for subsequent fenretinide determination, protein and lipid analyses. All procedures were performed with the approval of the Ethics Committee for Animal Experimentation.

For data set [2] the following is noted: stated as known, no reference given; cited from earlier work.
[3] abbreviates: colon cancer xenograft mice, Bio-nFeR 150 mg/kg, Suppl. Table 5.
Where [4] appears, read: colon cancer xenograft, Bio-nFeR 150 mg/kg, Suppl. Table 5.
The mark [5] stands for this setting: lung cancer xenograft mice, Bio-nFeR 100 mg/kg, Suppl. Table 5.
The mark [6] stands for this setting: lung cancer xenograft, Bio-nFeR 100 mg/kg, Suppl. Table 5.
Setting [7] is: melanoma xenograft mice, Bio-nFeR 100 mg/kg, Suppl. Table 5.
The mark [8] stands for this setting: melanoma xenograft, Bio-nFeR 100 mg/kg, Suppl. Table 5.

Each structure is given as a SMILES string. Where “and” joins values, the source holds several entries; their conditions need not be identical. Equal entries are not always repeated. Where two headings read alike, the source gives them in different places.

For the molecule `CC1=C(/C=C/C(C)=C/C=C/C(C)=C/C(=O)Nc2ccc(O)cc2)C(C)(C)CCC1` [4-HPR, 4-hydroxy (phenyl)retinamide, reference compound], the concentration at 3 h in data set [1] (NOD-SCID (colon, melanoma), NSG (lung), tumour, both drug doses analyzed (Bio-nFeR 100 and 150 mg/kg), three xenograft models, read-out: intra-tumour concentration) is 1880 ng/g to 2230 ng/g and 4.8 µM to 5.7 µM; in data set [1] (NOD-SCID, colon cancer xenograft, Bio-nFeR 150 mg/kg, tumour density assumed =1, read-out: Mean 4-HPR concentration: Tumor), 4.8 µM; in data set [1] (NOD-SCID, melanoma xenograft, Bio-nFeR 100 mg/kg, tumour density assumed =1, read-out: Mean 4-HPR concentration: Tumor), 5.4 µM; in data set [1] (NOD-SCID, plasma, colon cancer xenograft mice, Bio-nFeR 150 mg/kg, Suppl. Table 5, read-out: Mean concentration (±sd), Plasma), 4990 ng/mL; in data set [1] (NOD-SCID, plasma, colon cancer xenograft mice, Bio-nFeR 150 mg/kg, read-out: Mean 4-HPR concentration: Plasma), 12.1 µM; in data set [1] (NOD-SCID, plasma, melanoma xenograft mice, Bio-nFeR 100 mg/kg, Suppl. Table 5, read-out: Mean concentration (±sd), Plasma), 1710 ng/mL. For the same molecule, the concentration at 3 h was 4.7 µM in data set [1] (NOD-SCID, plasma, melanoma xenograft mice, Bio-nFeR 100 mg/kg, read-out: Mean 4-HPR concentration: Plasma); 1880 ng/mL in data set [1] (NOD-SCID, tumour, colon cancer xenograft, Bio-nFeR 150 mg/kg, Suppl. Table 5, read-out: Mean concentration (±sd), Tumor); 1880 ng/g in data set [1] (NOD-SCID, tumour, colon cancer xenograft, Bio-nFeR 150 mg/kg, read-out: Mean 4-HPR concentration ± (sd): Tumor); 2130 ng/mL in data set [1] (NOD-SCID, tumour, melanoma xenograft, Bio-nFeR 100 mg/kg, Suppl. Table 5, read-out: Mean concentration (±sd), Tumor); 2130 ng/g in data set [1] (NOD-SCID, tumour, melanoma xenograft, Bio-nFeR 100 mg/kg, read-out: Mean 4-HPR concentration ± (sd): Tumor); 5.7 µM in data set [1] (NSG, lung cancer xenograft, Bio-nFeR 100 mg/kg, tumour density assumed =1, read-out: Mean 4-HPR concentration: Tumor). Further, the concentration at 3 h was 3450 ng/mL in data set [1] (NSG, plasma, lung cancer xenograft mice, Bio-nFeR 100 mg/kg, Suppl. Table 5, read-out: Mean concentration (±sd), Plasma); 8.8 µM in data set [1] (NSG, plasma, lung cancer xenograft mice, Bio-nFeR 100 mg/kg, read-out: Mean 4-HPR concentration: Plasma); 2230 ng/mL in data set [1] (NSG, tumour, lung cancer xenograft, Bio-nFeR 100 mg/kg, Suppl. Table 5, read-out: Mean concentration (±sd), Tumor); 2230 ng/g in data set [1] (NSG, tumour, lung cancer xenograft, Bio-nFeR 100 mg/kg, read-out: Mean 4-HPR concentration ± (sd): Tumor).

`CC1=C(/C=C/C(C)=C/C=C/C(C)=C/C(=O)Nc2ccc(O)cc2)C(C)(C)CCC1=O` [4-oxo-4-HPR]: the “Mean concentration (±sd), Plasma” value is given as 3519 (1319) ng/ml in data set [1] (setting [3]), 2142 (374) ng/ml in data set [1] (setting [5]) and 1226 (220) ng/ml in data set [1] (setting [7]). The “Mean concentration (±sd), Tumor” value was 2514 (189) ng/ml in data set [1] (setting [4]), 2028 (150) ng/ml in data set [1] (setting [6]) and 2323(134) ng/ml in data set [1] (setting [8]).

Consider `COc1ccc(NC(=O)\C=C(C)/C=C/C=C(C)\C=C\C2=C(C)CCCC2(C)C)cc1` [MPR], for which the “activity of the metabolite” value in data set [2] was “inactive”. Besides, the “Mean concentration (±sd), Plasma” value in data set [1] (setting [3]) is listed as 790 (261) ng/ml; in data set [1] (setting [5]), 394 (68) ng/ml; in data set [1] (setting [7]) it was 190 (32) ng/ml. The results for the “Mean concentration (±sd), Tumor” value in data set [1] (setting [4]), in data set [1] (setting [6]) and in data set [1] (setting [8]) were 1090 (503) ng/ml, 2282 (598) ng/ml and 707 (476) ng/ml, respectively.
